Consider five compounds from patent publication US20160355530A1, “HEPATITIS C INHIBITORS AND USES THEREOF” (AbbVie Inc., priority 2010, published 2016).

Read-outs that look alike come from different tables or passages of the source.

As a reminder, the EC50 is the concentration needed to bring the measured effect to its halfway point. As a reminder, the IC50 is the concentration that gives 50% inhibition.

The test system of assay [1] is HCV 1a-H77 subgenomic replicon. In words: microbe, parasite or virus in culture. Format: cell-based, HCV genotype 1a. As to conditions: Hepatitis C virus, stable replicon. On the technique in general: Replicon systems follow genome replication, usually without infectious particles.
Assay [2] concerns the target T1, HCV NS5B polymerase 1b BK strain (Hepatitis C virus genotype 1b, UniProt P26663).
T1 construct: six-histidine tag; made in house; host or cells: E. coli
In words: HCV NS5B polymerase enzymatic inhibition assay, strain 1b BK. Type of assay: biochemical. To be noted: enzyme, strain 1b BK; read-out: HCV Polymerase Strain 1b BK IC50. The protocol:
(§1) Purified HCV NS5B polymerase enzymes were used for polymerase inhibition assays. All recombinant HCV polymerases contained the first 570 amino acids of the 591 amino acid native protein sequence and a six-histidine tag at the N-terminus or C-terminus to facilitate purification by affinity chromatography. The DNA nucleotide sequence for the HCV polymerase 1b BK strain was codon optimized for expression in E. coli. A synthetic gene was prepared from a series of overlapping oligonucleotides that were filled in using a DNA polymerase and amplified by PCR. The patient isolate HCV polymerases were cloned by RT-PCR methods using HCV RNA extracted from the serum of infected subjects obtained from ProMedDx and BioCollections (genotypes 2a, 2b, 3a, and 4a). Laboratory strains were cloned from plasmid DNA (1a-H77 or 1a-H77-C316Y) or from existing replicon cells (1b Rice). In all cases the amplified DNA was cloned into a protein expression vector (typically a pET vector from Novagen) and then multiple clones were sequenced to identify one whose NS5B sequence agreed with the population sequence. This sequence-confirmed clone was then transfected into E. coli for protein expression and purification. E. coli cultures were grown to a maximum optical density (OD) of 2-3 and then induced with 0.4 mM isopropyl beta-D-thiogalactopyranoside (IPTG) and grown for 20 hours at 20° C.
(§2) Proteins were purified using nickel affinity chromatography, and additional column steps were added including, ion exchange, size exclusion, hydrophobic ion, and poly-U affinity chromatography, as needed, depending on the sample being purified. The template RNA used in the polymerase enzymatic assay was a 2.1 kb construct that corresponds to the 3′-end of an HCV genotype 1b negative strand RNA.
(§3) The reaction was initiated by the addition of 20 μM CTP, 20 μM ATP, 0.284 μM (0.5 μCi) of 5,6-[^3H] UTP, 5 nM template RNA and 0.1 U/μL RNase inhibitor (RNasin, Promega), and allowed to proceed for three hours at 30° C. The final reaction volume was 50 μL. The reaction was terminated by the addition of 50 uL of 4 mM spermine in 10 mM Tris-HCl, pH 7.5, 1 mM EDTA. The quenched reaction was allowed to incubate for at least 15 minutes at room temperature, and then the precipitated RNA was captured by filtration through a glass fiber filter (GF/B, Millipore) in a 96 well format. The filter plate was washed five times with 200 μL of 2 mM spermine, 10 mM Tris-HCl, pH 8.0, 1 mM EDTA, and two times with ethanol. After drying thoroughly in air, 30 μL of Microscint-20 scintillation cocktail (Perkin Elmer) was added to each well, and the retained cpm were determined by scintillation counting. IC50 values were determined by nonlinear regression.
(§4) % Inhibition=100*[[I]/([I]+[IC50])] equation 1
(§5) V=kcat[S]/2(Km+[S])*(sqrt((IC50+I−E)̂2+(4*IC50*E))−(IC50+I−E)) equation 2

Assay [3] has as its target T2, HCV NS5B polymerase 1a-H77-C316Y (Hepatitis C virus genotype 1a, UniProt P27958, C2736Y).
T2 construct: six-histidine tag; made in house; host or cells: E. coli
Briefly: biochemical. Set-up: species or system HCV genotype 1a. On the procedure:
as §1, §2, §3, §4, §5

The test system of assay [4] is HCV NS5B polymerase 1a-H77-C316Y. Briefly: biochemical. Set-up: species or system HCV genotype 1a. As to conditions: ratio of enzyme IC50s, 1a H77-C316Y / 1a H77. On the procedure:
as §1, §2, §3, §4, §5

The target of assay [5] is T3, HCV NS5B polymerase 1a-H77 (Hepatitis C virus genotype 1a, UniProt P27958).
T3 construct: six-histidine tag; made in house; host or cells: E. coli
T3 sequence (P27958 2421-2990): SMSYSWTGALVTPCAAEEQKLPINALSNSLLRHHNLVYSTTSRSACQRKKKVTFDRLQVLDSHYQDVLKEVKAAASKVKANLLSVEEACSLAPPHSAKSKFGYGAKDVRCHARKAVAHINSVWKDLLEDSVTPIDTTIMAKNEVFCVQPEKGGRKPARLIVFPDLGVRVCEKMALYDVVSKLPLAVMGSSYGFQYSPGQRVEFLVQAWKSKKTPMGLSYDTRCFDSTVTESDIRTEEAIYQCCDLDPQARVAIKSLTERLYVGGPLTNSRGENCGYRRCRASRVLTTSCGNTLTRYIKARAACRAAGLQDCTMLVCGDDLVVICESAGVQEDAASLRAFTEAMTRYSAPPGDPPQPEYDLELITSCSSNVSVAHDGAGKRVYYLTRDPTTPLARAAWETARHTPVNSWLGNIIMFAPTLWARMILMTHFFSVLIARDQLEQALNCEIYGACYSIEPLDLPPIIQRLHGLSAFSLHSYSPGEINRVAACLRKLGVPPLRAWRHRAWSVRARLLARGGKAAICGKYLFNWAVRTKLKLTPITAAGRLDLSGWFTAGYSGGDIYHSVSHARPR
Briefly: biochemical. Set-up: species or system HCV genotype 1a. As to conditions: enzyme, strain 1a H77; read-out: HCV Polymerase Strain 1a H77 IC50. The protocol: as §1, §2, §3, §4, §5

In assay [6] the test system is HCV 1b-BB7 subgenomic replicon. In words: microbe, parasite or virus in culture. Type of assay: cell-based, HCV genotype 1b. To be noted: Hepatitis C virus, stable replicon.
The mark [7] stands for this setting: 5% FBS, absence of human plasma, read-out: Stable Replicon 1a H77 5% FBS EC50.
Setting [8] is: strain 1a H77, 5% FBS + 40% human plasma, read-out: 1a H77 5% FBS + 40% Human Plasma EC50.
Where [9] appears, read: strain 1a H77, 5% FBS, no human plasma, read-out: 1a H77 5% FBS EC50.
Where [10] appears, read: strain 1a H77, 5% FBS, read-out: 1a H77 5% FBS EC50.
[11] abbreviates: strain 1b BB7, 5% FBS + 40% human plasma, read-out: 1b BB7 5% FBS + 40% Human Plasma EC50.
Setting [12] is: strain 1b BB7, 5% FBS, no human plasma, read-out: 1b BB7 5% FBS EC50.
Setting [13] is: strain 1b BB7, 5% FBS, read-out: 1b BB7 5% FBS EC50.

T1 sequence (P26663 2420-2989): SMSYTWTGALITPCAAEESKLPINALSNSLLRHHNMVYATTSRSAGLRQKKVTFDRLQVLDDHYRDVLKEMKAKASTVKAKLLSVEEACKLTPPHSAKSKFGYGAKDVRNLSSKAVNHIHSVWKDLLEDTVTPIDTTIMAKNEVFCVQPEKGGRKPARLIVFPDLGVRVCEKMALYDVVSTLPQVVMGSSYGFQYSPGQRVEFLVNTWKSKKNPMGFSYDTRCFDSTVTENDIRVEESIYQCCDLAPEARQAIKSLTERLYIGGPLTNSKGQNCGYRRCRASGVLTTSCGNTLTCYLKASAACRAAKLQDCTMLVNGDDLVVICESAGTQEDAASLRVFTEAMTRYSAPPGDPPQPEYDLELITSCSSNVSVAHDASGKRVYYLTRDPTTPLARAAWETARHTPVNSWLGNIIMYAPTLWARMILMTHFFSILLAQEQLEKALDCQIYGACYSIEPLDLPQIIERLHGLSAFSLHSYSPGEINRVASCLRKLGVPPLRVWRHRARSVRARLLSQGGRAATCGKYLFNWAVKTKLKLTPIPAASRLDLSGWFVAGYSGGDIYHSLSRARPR
T2 sequence (P27958 2421-2990 C2736Y): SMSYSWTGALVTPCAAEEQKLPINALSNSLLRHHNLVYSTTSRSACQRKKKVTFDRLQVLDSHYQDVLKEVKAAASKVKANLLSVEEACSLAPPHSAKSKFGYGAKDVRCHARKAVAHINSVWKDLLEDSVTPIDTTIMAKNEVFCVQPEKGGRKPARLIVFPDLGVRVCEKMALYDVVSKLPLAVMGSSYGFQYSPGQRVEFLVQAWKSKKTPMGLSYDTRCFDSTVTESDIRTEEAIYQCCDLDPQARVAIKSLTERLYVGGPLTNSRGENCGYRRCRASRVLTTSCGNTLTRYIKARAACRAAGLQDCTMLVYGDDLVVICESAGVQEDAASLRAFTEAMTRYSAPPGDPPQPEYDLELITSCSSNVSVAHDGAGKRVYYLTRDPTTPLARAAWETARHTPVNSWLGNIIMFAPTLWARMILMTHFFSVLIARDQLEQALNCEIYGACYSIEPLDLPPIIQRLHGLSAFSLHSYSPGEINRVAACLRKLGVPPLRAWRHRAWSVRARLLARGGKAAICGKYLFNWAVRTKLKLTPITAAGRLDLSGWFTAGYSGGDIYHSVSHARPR

For `CC(C)CCN(c1cc2oc(-c3ccc(F)cc3)c(-c3nccc(=O)[nH]3)c2cc1C1CC1)S(C)(=O)=O` [Example 161, N-[5-cyclopropyl-2-(4-fluorophenyl)-3-(6-oxo-1,6-dihydropyrimidin-2-yl)-1-benzofuran-6-yl]-N-(3-methylbutyl)methanesulfonamide], the EC50 in assay [1] (setting [7]) turned out to be 124 nM; in assay [1] (setting [8]), 7910 nM; in assay [1] (setting [9]), 124 nM; in assay [1] (setting [10]), 124 nM; in assay [6] (setting [11]) it was 10000 nM; in assay [6] (setting [12]) it was 188 nM. The EC50 in assay [6] (setting [13]) worked out at 188 nM. For the same compound, the IC50 in assay [2] stood at 791 nM; in assay [3], 219 nM; in assay [5], 47.5 nM. Further, in assay [4], the “C316Y/1a Fold Resistance” value is 5 fold.
Consider `CC(O)CN(c1cc2oc(-c3ccc(F)cc3)c(-c3ncc[nH]3)c2cc1C1CC1)S(C)(=O)=O` (stereo not shown) [Example 98, N-[5-cyclopropyl-2-(4-fluorophenyl)-3-(1H-imidazol-2-yl)-1-benzofuran-6-yl]-N-(2-hydroxypropyl)methanesulfonamide], for which the EC50 stood at 158 nM in assay [1] (setting [7]); 1630 nM in assay [1] (setting [8]); 158 nM in assay [1] (setting [9]); 158 nM in assay [1] (setting [10]); 2060 nM in assay [6] (setting [11]); 136 nM in assay [6] (setting [12]). The EC50 in assay [6] (setting [13]) was 136 nM. Also, the IC50 turned out to be 240 nM in assay [2], 3200 nM in assay [3] and 24.5 nM in assay [5]. Also, the “C316Y/1a Fold Resistance” value in assay [4] is given as 131 fold.
For the compound `CS(=O)(=O)N(CC(O)CO)c1cc2oc(-c3ccc(F)cc3)c(-c3ncc[nH]3)c2cc1C1CC1` (stereo not shown) [Example 93, N-[5-cyclopropyl-2-(4-fluorophenyl)-3-(1H-imidazol-2-yl)-1-benzofuran-6-yl]-N-(2,3-dihydroxypropyl)methanesulfonamide], the EC50 in assay [1] (setting [7]) is 83.2 nM; in assay [1] (setting [8]), 915 nM; in assay [1] (setting [9]), 83.2 nM; in assay [1] (setting [10]), 83.2 nM; in assay [6] (setting [11]), 880 nM; in assay [6] (setting [12]) it was 63.4 nM. Also, the EC50 in assay [6] (setting [13]) was found to be 63.4 nM. In addition, the values for the IC50 in assay [2], in assay [3] and in assay [5] were 117 nM, 1600 nM and 5 nM, respectively. Moreover, the “C316Y/1a Fold Resistance” value in assay [4] amounted to 320 fold.
Consider `CS(=O)(=O)N(CC(N)=O)c1cc2oc(-c3ccc(F)cc3)c(-c3ncc[nH]3)c2cc1C1CC1` [Example 36, N^2-[5-cyclopropyl-2-(4-fluorophenyl)-3-(1H-imidazol-2-yl)-1-benzofuran-6-yl]-N^2-(methylsulfonyl)glycinamide], for which the EC50 in assay [1] (setting [7]) is 301 nM; in assay [1] (setting [8]) it was 2140 nM; in assay [1] (setting [9]) it was 301 nM; in assay [1] (setting [10]) it was 301 nM; in assay [6] (setting [11]), 1120 nM; in assay [6] (setting [12]), 180 nM. Besides, in assay [6] (setting [13]), the 50% effective concentration (EC50) came to 180 nM. The IC50 turned out to be 188 nM in assay [2], 3400 nM in assay [3] and 7.9 nM in assay [5]. Moreover, the “C316Y/1a Fold Resistance” value in assay [4] amounted to 428 fold.
As for `CC(c1ccccc1)N(c1ccc2c(-c3ncc[nH]3)c(-c3ccccc3)oc2c1)S(C)(=O)=O` (stereo not shown) [Example 20, N-[3-(1H-imidazol-2-yl)-2-phenyl-1-benzofuran-6-yl]-N-(1-phenylethyl)methanesulfonamide], the EC50 in assay [1] (setting [7]) was 1000 nM; in assay [1] (setting [8]), 10000 nM; in assay [1] (setting [9]) it was 1000 nM; in assay [1] (setting [10]), 1000 nM; in assay [6] (setting [11]) it was 7300 nM; in assay [6] (setting [12]), 133 nM. The EC50 in assay [6] (setting [13]) stood at 133 nM. The half-maximal inhibitory concentration (IC50) was found to be 52 nM in assay [2], 173 nM in assay [3] and 34.9 nM in assay [5]. Besides, the “C316Y/1a Fold Resistance” value in assay [4] turned out to be 5 fold.
